The NIST ThermoML archive (doi:10.1021/je700344f)
Values joined by “and” are separate entries in the source; they are usually repeats but may differ in a detail not shown here. Equal values may be shown once. ± gives the expanded uncertainty stated by the source.

Conditions: 101.33 kPa, Liquid

mass density (283.15 K) [kg/m3] | viscosity (283.15 K) [mPa·s] | mass density (293.15 K) [kg/m3] | viscosity (293.15 K) [mPa·s] | mass density (313.15 K) [kg/m3] | viscosity (313.15 K) [mPa·s] | mass density (323.15 K) | mass density (333.15 K) [kg/m3] | viscosity (333.15 K) [mPa·s] | mass density (343.15 K) [kg/m3] | viscosity (343.15 K) [mPa·s] | Compound | mass density (303.15 K) | viscosity (303.15 K) | viscosity (323.15 K)
1046.91 ± 3.4 | 1.59 ± 0.11 | 1035.03 ± 3.1 | 1.312 ± 0.094 | 1011.32 ± 2.5 | 0.946 ± 0.071 | 999.12 ± 2.2 kg/m3 | 987.92 ± 2.5 | 0.721 ± 0.056 | 976.61 ± 2.8 | 0.64 ± 0.051 | C1COCCO1 [1,4-dioxane] | 1022.71 ± 2.8 kg/m3 | 1.102 ± 0.081 mPa·s | 0.825 ± 0.063 mPa·s
828.23 ± 6.5 | 7.459 ± 0.44 | 821.01 ± 6.7 | 5.335 ± 0.34 | 810.91 ± 7 | 2.937 ± 0.2 | 806.84 ± 7 kg/m3 and 804.22 ± 7.1 kg/m3 | 802.91 ± 7.2 | 1.654 ± 0.12 | 798.64 ± 7.3 | 1.411 ± 0.1 | CCCCCCO [hexan-1-ol] | 815.92 ± 6.8 kg/m3 and 813.96 ± 6.9 kg/m3 | 3.763 ± 0.25 mPa·s and 3.917 ± 0.26 mPa·s | 2.172 ± 0.15 mPa·s and 2.276 ± 0.16 mPa·s

Compound | mass density (283.15 K) [kg/m3] | viscosity (283.15 K) [mPa·s] | mass density (293.15 K) [kg/m3] | viscosity (293.15 K) [mPa·s] | mass density (313.15 K) [kg/m3] | viscosity (313.15 K) [mPa·s] | mass density (323.15 K) | mass density (333.15 K) [kg/m3] | viscosity (333.15 K) [mPa·s] | mass density (343.15 K) [kg/m3] | viscosity (343.15 K) [mPa·s] | mass density (303.15 K) | viscosity (303.15 K) | viscosity (323.15 K)
CN(C)c1ccccc1 [N,N-dimethylaniline] | 969.97 ± 2.9 | 1.696 ± 0.12 | 963.01 ± 3.1 | 1.439 ± 0.1 | 948.34 ± 3.5 | 0.981 ± 0.073 | 940.24 ± 3.7 kg/m3 | 932.71 ± 3.9 | 0.911 ± 0.068 | 924.08 ± 4.1 | 0.841 ± 0.064 | 956.21 ± 3.3 kg/m3 | 1.17 ± 0.085 mPa·s | 0.928 ± 0.07 mPa·s
